Experimental data published in US20220054469A1, “FARNESOID X RECEPTOR AGONISTS AND USES THEREOF” (Metacrine, Inc., priority 2018, published 2022).

target: T1, hFXR (Homo sapiens, UniProt Q96RI1); test: In Vitro FXR Assay (TK); format: cell-based; conditions: CV-1 cells transfected with hFXR, hRXR, TK-ECRE-luc and pCMX-YFP; incubated with compound for 18 hrs; luminescence
T1 construct: expressed in transfected cells; host or cells: CV-1 cells
T1 sequence (Q96RI1 1-486): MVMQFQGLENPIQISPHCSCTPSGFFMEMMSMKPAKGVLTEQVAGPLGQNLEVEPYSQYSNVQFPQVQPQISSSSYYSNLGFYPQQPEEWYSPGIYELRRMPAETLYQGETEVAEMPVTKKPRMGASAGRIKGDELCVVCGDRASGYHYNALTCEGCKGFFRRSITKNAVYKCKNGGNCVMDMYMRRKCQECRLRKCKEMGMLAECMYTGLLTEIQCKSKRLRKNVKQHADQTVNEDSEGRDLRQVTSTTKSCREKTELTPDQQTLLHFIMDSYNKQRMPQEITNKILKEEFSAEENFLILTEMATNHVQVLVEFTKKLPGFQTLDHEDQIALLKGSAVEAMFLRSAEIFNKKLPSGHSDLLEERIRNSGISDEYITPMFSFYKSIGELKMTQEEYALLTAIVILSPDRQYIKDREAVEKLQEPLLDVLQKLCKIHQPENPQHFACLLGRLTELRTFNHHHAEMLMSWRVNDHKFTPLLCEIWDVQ
T1 sequence (P19793 1-462 partner): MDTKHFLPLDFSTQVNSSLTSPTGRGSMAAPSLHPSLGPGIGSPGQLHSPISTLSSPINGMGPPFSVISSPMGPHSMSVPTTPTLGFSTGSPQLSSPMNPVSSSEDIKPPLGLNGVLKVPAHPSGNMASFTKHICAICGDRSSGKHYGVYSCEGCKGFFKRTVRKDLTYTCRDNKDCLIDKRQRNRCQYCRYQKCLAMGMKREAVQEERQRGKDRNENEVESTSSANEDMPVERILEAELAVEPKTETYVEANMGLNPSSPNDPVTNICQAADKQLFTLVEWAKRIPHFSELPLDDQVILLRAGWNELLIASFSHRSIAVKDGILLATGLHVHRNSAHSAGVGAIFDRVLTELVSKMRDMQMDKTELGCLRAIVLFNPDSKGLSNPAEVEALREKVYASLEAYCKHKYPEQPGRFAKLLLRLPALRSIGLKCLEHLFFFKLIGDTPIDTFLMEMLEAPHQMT
Outline: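 Luminescence from a TK-ECRE-luc reporter was read after 18 h of compound exposure in CV-1 cells. These cells were grown in charcoal-stripped FBS medium and transiently transfected with hFXR, hRXR and YFP expression plasmids.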

| EC50 [µM] | Compound |
| --- | --- |
| ≤ 0.05 | CC(C)n1cc(-c2cccc(N(CC34CCC(c5ccc(N(C)C)nc5)(CC3)CC4)C(=O)[C@H]3CC[C@H](CC(=O)O)CC3)c2)cn1 [Compound 4.14, trans-2-(4-(((4-(6-(Dimethylamino)pyridin-3-yl)bicyclo[2.2.2]octan-1-yl)methyl)(3-(1-isopropyl-1H-pyrazol-4-yl)phenyl)carbamoyl)cyclohexyl)acetic acid] |
| ≤ 0.05 | COc1ccc(C23CCC(CN(c4cccc(-c5cnn(C(C)C)c5)c4F)C(=O)[C@H]4CC[C@H](CC(=O)O)CC4)(CC2)CC3)cc1C [Compound 2.08, trans-2-(4-((2-Fluoro-3-(1-isopropyl-1H-pyrazol-4-yl)phenyl)((4-(4-methoxy-3-methylphenyl)bicyclo[2.2.2]octan-1-yl)methyl)carbamoyl)cyclohexyl)acetic acid] |
| 0.05 to 1 | COc1ccc(C23CCC(CN(C(=O)[C@@H]4CCC[C@@H](C(=O)O)C4)c4cc(-c5cnn(C(C)C)c5)ccn4)(CC2)CC3)cc1C (relative stereo) [Compound 3.06, trans-3-((4-(1-Isopropyl-1H-pyrazol-4-yl)pyridin-2-yl)((4-(4-methoxy-3-methylphenyl)bicyclo[2.2.2]octan-1-yl)methyl)carbamoyl)cyclohexanecarboxylic acid] |
| 0.05 to 1 | COc1ccc(C23CCC(CN(C(=O)[C@@H]4CCC[C@@H](CC(=O)O)C4)c4cc(-c5cnn(C(C)C)c5)ccn4)(CC2)CC3)cc1C (relative stereo) [Compound 5.01, trans-2-(3-((4-(1-Isopropyl-1H-pyrazol-4-yl)pyridin-2-yl)((4-(4-methoxy-3-methylphenyl)bicyclo[2.2.2]octan-1-yl)methyl)carbamoyl)cyclohexyl)acetic acid] |
| 0.05 to 1 | COc1ccc(C23CCC(CN(c4cc(-c5nnc(C(C)C)o5)ccn4)C(=O)[C@H]4CC[C@H](CC(=O)O)CC4)(CC2)CC3)cc1C [Compound 4.19, trans-2-(4-((4-(5-lsopropyl-1,3,4-oxadiazol-2-yl)pyridin-2-yl)((4-(4-methoxy-3-methylphenyl)bicyclo[2.2.2]octan-1-yl)methyl)carbamoyl)cyclohexyl)acetic acid] |
| 0.05 to 1 | COc1ccc(C23CCC(CN(c4cc(-c5cnn(C(C)C)c5)ccn4)C(=O)[C@H]4CC[C@@H](C(=O)O)CC4)(CC2)CC3)cc1C [Compound 3.01, cis-4-((4-(1-Isopropyl-1H-pyrazol-4-yl)pyridin-2-yl)((4-(4-methoxy-3-methylphenyl)bicyclo[2.2.2]octan-1-yl)methyl)carbamoyl)cyclohexanecarboxylic acid] |
| 0.05 to 1 | COc1ccc(C23CCC(CN(c4cc(-c5cnn(C(C)C)c5)ncn4)C(=O)[C@H]4CC[C@H](CC(=O)O)CC4)(CC2)CC3)cc1C [Compound 3, trans-2-(4-((6-(1-Isopropyl-1H-pyrazol-4-yl)pyrimidin-4-yl)((4-(4-methoxy-3-methylphenyl)bicyclo[2.2.2]octan-1-yl)methyl)carbamoyl)cyclohexyl)acetic acid] |
| ≤ 0.05 | COc1ncc(C23CCC(CN(c4cccc(-c5cnn(C(C)(C)C)c5)c4)C(=O)[C@H]4CC[C@H](CC(=O)O)CC4)(CC2)CC3)cc1C [Compound 2.07, trans-2-(4-((3-(1-(tert-Butyl)-1H-pyrazol-4-yl)phenyl)((4-(6-methoxy-5-methylpyridin-3-yl)bicyclo[2.2.2]octan-1-yl)methyl)carbamoyl)cyclohexyl)acetic acid] |
| ≤ 0.05 | COc1ccc(C23CCC(CN(c4cc(-c5cnc(C(C)(C)C)s5)ccn4)C(=O)[C@H]4CC[C@H](CC(=O)O)CC4)(CC2)CC3)cc1C [Compound 4.17, trans-2-(4-((4-(2-(tert-Butyl)thiazol-5-yl)pyridin-2-yl)((4-(4-methoxy-3-methylphenyl)bicyclo[2.2.2]octan-1-yl)methyl)carbamoyl)cyclohexyl)acetic acid] |
